{"source": "patent US8703723B2", "about": "“Glycoside compounds and pharmaceutical compositions thereof” (Centrose, LLC, priority 2009, dated 2014)", "key": {"A549 (NSCLC) cell line [1]": {"tested_on": "A549 (NSCLC) cell line", "conditions": "footnote 2: data from Langenhan et al. 2005; cited from earlier work"}, "[2]": {"tested_on": "NCI-H460 (NSCLC) cell line", "conditions": "footnote 2: data from Langenhan et al. 2005; cited from earlier work"}, "[3]": {"tested_on": "SKOV3 (Ovarian) cell line", "conditions": "footnote 2: data from Langenhan et al. 2005; cited from earlier work"}, "[4]": {"tested_on": "NCI-H460 (NSCLC) cell line", "assay": "Cancer cell cytotoxicity assay (Calcein AM / Cell Titer-Glo), NCI-H460", "assay_type": "cell-based, human", "protocol": "(§1) Compounds of the invention and comparative compounds were assayed in three cancer cell lines to confirm cytotoxic activity and to set a range of concentrations to use in subsequent assays. All cell lines were maintained in RPMI medium 1640 supplemented with 10% (wt/vol) fetal bovine serum and penicillin-streptomycin (100 units/ml and 100 μg/ml). Cells were routinely checked for microbial or mycoplasma contamination and if necessary replaced. Cells were harvested by trypsinization using 0.25% trypsin and 0.1% EDTA and then counted in a ViCell XR coulter counter in duplicate, before and after dilution for assay plating. Between four to nine different types of human cancer cells were plated at a density of 10,000-15,000 cells per well of each 96-well black tissue culture treated microtiter plate, then were grown for 1 hour at 37° C. with 5% CO2/95% air in a humidified incubator to allow cells to attach before compound addition. Compound stocks (100×) were prepared in 96-well V-bottom polypropylene microtiter plates. Five serial (1:2) dilutions were made with anhydrous DMSO at 100× the final concentration used in the assay. The individual wells in compound-containing […] well plates were diluted 1:10 with complete cell culture medium and the 10× (10 μL) stocks were added to 90 μl of cells in each plate to ensure full mixing of stocks with culture media by using a Biomek FX liquid handler with 96-well head. Doxorubicin was used as the control to monitor the behavior of each cell line. Cells were incubated with the compounds for 3 to 4 days before fluorescence and luminescence reading. Test plates were removed from the incubator and washed once in sterile PBS to remove serum containing calcium esterases. Calcein AM (acetoxymethyl ester) reagent was added and the cells were incubated for 30 min at 37° C. Plates were read for emission by using a fluorescein filter (excitation 485 nm, emission 535 nm). An equal volume (30 μL) of Cell Titer-Glo reagent (Promega Corporation, Inc.) was added and incubated for 10 min at room temperature with gentle agitation to lyse the cells. Each plate was re-read for luminescence to confirm the inhibition observed in the fluorescent […] assay as a measure of cell viability. The cancer cell cytotoxicity assays were run in triplicate using ≧5 different drug concentrations, and the data were analyzed to establish statistical significance and a valid IC50 value for inhibition of cell growth, based on ≧2 log differences in drug effect.\n(§2) The cancer cell cytotoxicities (determined substantially according to the method of Example 5) of various compounds of the invention and comparative compounds as determined in four to five different human cancer cell lines are shown in Table 1. The structures of the compounds listed are found in FIGS. 2-4."}, "A549 (NSCLC) cell line [5]": {"tested_on": "A549 (NSCLC) cell line", "assay": "Cancer cell cytotoxicity assay (Calcein AM / Cell Titer-Glo), A549", "assay_type": "cell-based, human", "protocol": "as §1, §2"}, "[6]": {"tested_on": "SKOV3 (Ovarian) cell line", "assay": "Cancer cell cytotoxicity assay (Calcein AM / Cell Titer-Glo), SKOV3", "assay_type": "cell-based, human", "protocol": "as §1, §2"}, "H1299 (NSCLC) cell line": {"tested_on": "H1299 (NSCLC) cell line", "assay": "Cancer cell cytotoxicity assay (Calcein AM / Cell Titer-Glo), H1299", "assay_type": "cell-based, human", "protocol": "as §1, §2"}, "[7]": {"tested_on": "HT29 (Colorectal) cell line", "assay": "Cancer cell cytotoxicity assay (Calcein AM / Cell Titer-Glo), HT29", "assay_type": "cell-based, human", "protocol": "as §1, §2"}, "human cancer cell lines": {"tested_on": "human cancer cell lines", "assay": "Cancer cell cytotoxicity, summary over four to five human cancer cell lines", "assay_type": "cell-based", "conditions": "read-out: IC50 values (cancer cell cytotoxicity)", "protocol": "as §1, §2"}, "[8]": {"conditions": "Ovarian, assay set not specified"}, "[9]": {"conditions": "NSCLC, footnote 7: determined at same time as CEN08-180"}, "[10]": {"conditions": "NSCLC, footnote 4: determined at same time as CEN08-177 and -178"}, "[11]": {"conditions": "Colorectal, assay set not specified"}}, "note": "Read-outs that look alike come from different tables or passages of the source.", "data": [{"molecule": "C[C@H]1O[C@@H](O[C@H]2[C@@H](O)C[C@H](O[C@H]3[C@@H](O)C[C@H](O[C@H]4CC[C@@]5(C)[C@H](CC[C@@H]6[C@@H]5CC[C@]5(C)[C@@H](C7=CC(=O)OC7)CC[C@]65O)C4)O[C@@H]3C)O[C@@H]2C)C[C@H](O)[C@@H]1O", "note": "[Digitoxin]", "values": [{"measurement": "IC50", "setting": "A549 (NSCLC) cell line [1]", "result": 280, "unit": "nM"}, {"measurement": "IC50", "setting": "[2]", "result": 280, "unit": "nM"}, {"measurement": "IC50", "setting": "[3]", "result": 700, "unit": "nM"}]}, {"molecule": "CON(C1CCC2(C)C(CCC3C2CCC2(C)C(C4=CC(=O)OC4)CCC32O)C1)C1OCC(N)C(O)C1O", "note": "(stereo not shown) [CEN08-241]", "values": [{"measurement": "IC50", "setting": "[4]; NSCLC, assay set not specified", "result": 27, "unit": "nM"}, {"measurement": "IC50", "setting": "A549 (NSCLC) cell line [5]; NSCLC, assay set not specified", "result": 20, "unit": "nM"}, {"measurement": "IC50", "setting": "[6]; [8]", "result": 74, "unit": "nM"}, {"measurement": "IC50", "setting": "H1299 (NSCLC) cell line; NSCLC, assay set not specified", "result": 24, "unit": "nM"}]}, {"molecule": "CC1OC(=O)C=C1C1CCC2(O)C3CCC4CC(OC5OCC(O)C(O)C5O)CCC4(C)C3CCC12C", "note": "(stereo not shown) [CEN08-245]", "values": [{"measurement": "IC50", "setting": "[4]; NSCLC, assay set not specified", "result": 2100, "unit": "nM"}, {"measurement": "IC50", "setting": "A549 (NSCLC) cell line [5]; NSCLC, assay set not specified", "result": 1290, "unit": "nM"}, {"measurement": "IC50", "setting": "[6]; [8]", "result": 3220, "unit": "nM"}, {"measurement": "IC50", "setting": "H1299 (NSCLC) cell line; NSCLC, assay set not specified", "result": 3700, "unit": "nM"}]}, {"molecule": "(3β)-3-N-methoxyaminoscillarenin [CEN08-180]", "values": [{"measurement": "IC50", "setting": "[4]; [9]", "result": 13, "unit": "nM"}, {"measurement": "IC50", "setting": "A549 (NSCLC) cell line [5]; [9]", "result": 3, "unit": "nM"}, {"measurement": "IC50", "setting": "[7]; Colorectal, footnote 7: determined at same time as CEN08-180", "result": 26, "unit": "nM"}, {"measurement": "IC50", "setting": "[6]; Ovarian, footnote 7: determined at same time as CEN08-180", "result": 34, "unit": "nM"}, {"measurement": "IC50", "setting": "H1299 (NSCLC) cell line; [9]", "result": 8, "unit": "nM"}]}, {"molecule": "CON[C@H]1CC[C@@]2(C)[C@H](CC[C@@H]3[C@@H]2CC[C@]2(C)[C@@H](C4=CC(=O)OC4)CC[C@]32O)C1", "note": "[(3β)-3-N-methoxyaminodigitoxigenin]", "values": [{"measurement": "IC50", "setting": "A549 (NSCLC) cell line [1]", "result": 8300, "unit": "nM"}, {"measurement": "IC50", "setting": "[2]", "result": 2400, "unit": "nM"}, {"measurement": "IC50", "setting": "[3]", "result": 3000, "unit": "nM"}]}, {"molecule": "CC12CCC(OC3OCC(O)C(O)C3O)CC1CCC1C2CCC2(C)C(C3=CC(=O)OC3)CCC12O", "note": "(stereo not shown) [CEN08-177]", "values": [{"measurement": "IC50", "setting": "[4]; [10]", "result": 20, "unit": "nM"}, {"measurement": "IC50", "setting": "A549 (NSCLC) cell line [5]; [10]", "result": 20, "unit": "nM"}, {"measurement": "IC50", "setting": "[7]; Colorectal, footnote 4: determined at same time as CEN08-177 and -178", "result": 70, "unit": "nM"}, {"measurement": "IC50", "setting": "[6]; Ovarian, footnote 4: determined at same time as CEN08-177 and -178", "result": 80, "unit": "nM"}, {"measurement": "IC50", "setting": "H1299 (NSCLC) cell line; [10]", "result": 40, "unit": "nM"}]}, {"molecule": "CC12CCC(OC3OCC(O)C(O)C3O)C=C1CCC1C2CCC2(C)C(c3ccc(=O)oc3)CCC12O", "note": "(stereo not shown) [CEN08-192]", "values": [{"measurement": "IC50", "setting": "[4]; NSCLC, assay set not specified", "result": 16, "unit": "nM"}, {"measurement": "IC50", "setting": "A549 (NSCLC) cell line [5]; NSCLC, assay set not specified", "result": 8, "unit": "nM"}, {"measurement": "IC50", "setting": "[7]; [11]", "result": 16, "unit": "nM"}, {"measurement": "IC50", "setting": "[6]; [8]", "result": 72, "unit": "nM"}, {"measurement": "IC50", "setting": "H1299 (NSCLC) cell line; NSCLC, assay set not specified", "result": 11, "unit": "nM"}]}, {"molecule": "CON(C1C=C2CCC3C(CCC4(C)C(c5ccc(=O)oc5)CCC34O)C2(C)CC1)C1OCC(O)C(O)C1O", "note": "(stereo not shown) [CEN08-185]", "values": [{"measurement": "IC50", "setting": "[4]; NSCLC, assay set not specified", "result": 9, "unit": "nM"}, {"measurement": "IC50", "setting": "A549 (NSCLC) cell line [5]; NSCLC, assay set not specified", "result": 2, "unit": "nM"}, {"measurement": "IC50", "setting": "[7]; [11]", "result": 13, "unit": "nM"}, {"measurement": "IC50", "setting": "[6]; [8]", "result": 15, "unit": "nM"}, {"measurement": "IC50", "setting": "H1299 (NSCLC) cell line; NSCLC, assay set not specified", "result": 5, "unit": "nM"}]}, {"molecule": "C[C@]12CC[C@H](O[C@H]3OC[C@H](O)[C@@H](O)C3O)C[C@H]1CCC1C2CC[C@]2(C)[C@@H](C3=CC(=O)OC3)CC[C@]12O", "note": "(stereo partly drawn) [CEN08-178, 3-O-digitoxigenin-L-riboside]", "values": [{"measurement": "IC50", "setting": "[4]; Homo sapiens, NCI-H460, NSCLC, footnote 4: determined at same time as CEN08-177 and -178", "result": 20, "unit": "nM"}, {"measurement": "IC50", "setting": "A549 (NSCLC) cell line [5]; Homo sapiens, A549, NSCLC, footnote 4: determined at same time as CEN08-177 and -178", "result": 20, "unit": "nM"}, {"measurement": "IC50", "setting": "[7]; Homo sapiens, HT-29, Colorectal, footnote 4: determined at same time as CEN08-177 and -178", "result": 70, "unit": "nM"}, {"measurement": "IC50", "setting": "human cancer cell lines", "result": "< 80", "unit": "nM"}, {"measurement": "IC50", "setting": "[6]; Homo sapiens, SK-OV-3, Ovarian, footnote 4: determined at same time as CEN08-177 and -178", "result": 80, "unit": "nM"}, {"measurement": "IC50", "setting": "H1299 (NSCLC) cell line; Homo sapiens, NCI-H1299, NSCLC, footnote 4: determined at same time as CEN08-177 and -178", "result": 50, "unit": "nM"}]}, {"molecule": "CON(C1C=C2CCC3C(CCC4(C)C(c5ccc(=O)oc5)CCC34O)C2(C)CC1)C1OC(CO)C(O)C(O)C1N", "note": "(stereo not shown) [CEN08-237]", "values": [{"measurement": "IC50", "setting": "[4]; NSCLC, assay set not specified", "result": 37, "unit": "nM"}, {"measurement": "IC50", "setting": "A549 (NSCLC) cell line [5]; NSCLC, assay set not specified", "result": 21, "unit": "nM"}, {"measurement": "IC50", "setting": "H1299 (NSCLC) cell line; NSCLC, assay set not specified", "result": 20, "unit": "nM"}]}]}
